In the test the target is recombinant human SYK (GST-hSYK fusion protein) (Homo sapiens, UniProt P43405).
Where [1] appears, read: read-out: rhSYK Activity, Table 33-A.
[2] abbreviates: read-out: rhSYK Activity, Table 33B.
The mark [3] stands for this setting: read-out: rhSYK Activity, Table 33C.
[4] abbreviates: read-out: rhSYK Activity, Table 33D.
Where [5] appears, read: read-out: rhSYK Activity, Table 54D.
Where [6] appears, read: read-out: rhSYK Activity (IC50), recombinant human GST-SYK 5 pM, ATP 25 μM, biotinylated substrate peptide 250 nM, HTRF, 10-dose titration.
Setting [7] is: read-out: rhSYK Activity, Table 54B.
Setting [8] is: read-out: rhSYK Activity, Table 116A.

Molecules are shown by their SMILES. Like-named read-outs stand apart in the source and are kept apart here. Bounds are passed on as bounds.

Source text: Homogeneous Time-Resolved Fluorescence (HTRF) Assay for the Recombinant Human SYK Enzyme:

`Cc1cc(Nc2nccc(C(F)(F)F)n2)cc(-c2cnc(C3(O)CCC(C(=O)O)C(C)(C)C3C)s2)c1` (single isomer, unassigned) [Example 33A-78]: the IC50 under setting [1] is less than 100 nM.

`Cc1cc(Nc2nccc(C(F)(F)F)n2)cc(-c2cnc(C3(O)CCC(CC(=O)O)C3)s2)c1` (single isomer, unassigned) [Example 33B-26]: the IC50 under setting [2] was less than 100 nM.

As for `Cc1cc(Nc2nccc(C(F)(F)F)n2)cc(-c2cnc(C3(O)CCC(CC(=O)O)C3)s2)c1` (single isomer, unassigned) [Example 33B-27], the IC50 under setting [2] was less than 100 nM. On the same count and under the same terms, the result for `Cc1cc(Nc2nccc(C(F)(F)F)n2)cc(-c2cnc(C3(O)CCC(CC(=O)O)C3)s2)c1` (single isomer, unassigned) [Example 33B-28] reads less than 100 nM. Turning to `Cc1cc(Nc2nccc(C(F)(F)F)n2)cc(-c2cnc(C3(O)CC[C@H]4C(C(=O)O)[C@H]43)s2)c1` (single isomer, unassigned) [Example 33C-7], under setting [3], the IC50 is less than 100 nM. The same measure, in the same setting: the result for `Cc1cc(Nc2nccc(C(F)(F)F)n2)cc(-c2cnc(C3(O)CC[C@H]4C(C(=O)O)[C@H]43)s2)c1` (single isomer, unassigned) [Example 33C-8] reads less than 100 nM. For the molecule `Cc1cc(Nc2nccc(C(F)(F)F)n2)cc(-c2cnc(C(C)(O)CCC(C)(C)C(=O)O)s2)c1` (single isomer, unassigned) [Example 33D-2], the IC50 under setting [4] was less than 100 nM. Same read-out and setting: the figure for `Cc1cc(Nc2nccc(C(F)(F)F)n2)cc(-c2cnc(C(C)(O)c3ccc(C(=O)O)s3)s2)c1` (single isomer, unassigned) [Example 33D-22] is less than 100 nM. Take `Cc1cc(Nc2nccc(C(F)(F)F)n2)cc(-c2cnc(C3(O)CCCN(C(=O)CC(N)=O)CC3)s2)c1` (single isomer, unassigned) [Example 54D-21]: the IC50 under setting [5] is less than 100 nM. On the same count and under the same terms, the figure for `Cc1cc(Nc2nccc(C(F)(F)F)n2)cc(-c2cnc(C3(O)CCCN(C(=O)CC(=O)O)CC3)s2)c1` (single isomer, unassigned) [Example 54D-26] is less than 100 nM. The same measure, in the same setting: the figure for `Cc1cc(Nc2nccc(C(F)(F)F)n2)cc(-c2cnc(C3(O)CCCN(C(=O)C(O)CO)CC3)s2)c1` (single isomer, unassigned) [Example 54D-29] is less than 100 nM; for `Cc1cc(Nc2nccc(C(F)(F)F)n2)cc(-c2cnc(C3(O)CCCN(C(=O)c4cnn[nH]4)CC3)s2)c1` (single isomer, unassigned) [Example 54D-37] it is less than 100 nM; for `Cc1cc(Nc2nccc(C(F)(F)F)n2)cc(-c2cnc(C3(O)CCCN(C(=O)c4cnon4)CC3)s2)c1` (single isomer, unassigned) [Example 54D-39] it is less than 100 nM.

On to `Cc1cc(Nc2nccc(C(F)(F)F)n2)cc(-c2cnc(C3(O)CCCN(C(=O)CCC(N)=O)CC3)s2)c1` (single isomer, unassigned) [Example 54D-42], for which the IC50 under setting [5] is less than 100 nM. Same read-out and setting: the result for `Cc1cc(Nc2nccc(C(F)(F)F)n2)cc(-c2cnc(C3(O)CCCN(C(=O)c4cnnn4C)CC3)s2)c1` (single isomer, unassigned) [Example 54D-51] reads less than 100 nM. For the molecule `Cc1cc(Nc2nccc(C(F)(F)F)n2)cc(-c2cnc(C3(O)CCCN(C(=O)Cn4ccnn4)CC3)s2)c1` (single isomer, unassigned) [Example 54D-53], the IC50 under setting [5] is less than 100 nM. For the molecule `Cc1cc(Nc2nccc(C(F)(F)F)n2)cc(-c2cnc(C3(O)CCCN(C(=O)c4nnnn4C)CC3)s2)c1` (single isomer, unassigned) [Example 54D-58], the IC50 under setting [5] is less than 100 nM. As for `Cc1cc(Nc2nccc(C(F)(F)F)n2)cc(-c2cnc(C3(O)CCCN(C(=O)Cc4nnn[nH]4)CC3)s2)c1` (single isomer, unassigned) [Example 54D-60], the IC50 under setting [5] was less than 100 nM. Same read-out and setting: the figure for `CCOC(=O)CC(=O)N1CCCC(O)(c2ncc(-c3cc(C)cc(Nc4nccc(C(F)(F)F)n4)c3)s2)CC1` (single isomer, unassigned) [Example 54D-74] is less than 100 nM; for `Cc1cc(Nc2nccc(C(F)(F)F)n2)cc(-c2cnc(C3(O)CCCN(C(=O)C(C)(CO)CO)CC3)s2)c1` (single isomer, unassigned) [Example 54D-80] it is less than 100 nM; for `Cc1cc(Nc2nccc(C(F)(F)F)n2)cc(-c2cnc(C3(O)CCCN(C(=O)c4[nH]nnc4Cl)CC3)s2)c1` (single isomer, unassigned) [Example 54D-101] it is less than 100 nM. In the case of `Cc1cc(Nc2nccc(C(F)(F)F)n2)cc(-c2cnc(C3(O)CCCN(C(=O)c4nn[nH]c4C(F)(F)F)CC3)s2)c1` (single isomer, unassigned) [Example 54D-108], the IC50 under setting [5] was less than 100 nM.

For the molecule `Cc1cc(Nc2nccc(C(F)(F)F)n2)cc(-c2cnc(C3(O)CCCN(C(=O)c4n[nH]c(C(F)(F)F)n4)CC3)s2)c1` (single isomer, unassigned) [Example 54D-110], the IC50 under setting [5] is less than 100 nM. Still for that read-out and setting: the result for `Cc1cc(Nc2nccc(C(F)(F)F)n2)cc(-c2cnc(C3(O)CCCN(S(N)(=O)=O)CC3)s2)c1` (single isomer, unassigned) [Example 54D-117] reads less than 100 nM; that for `Cc1cc(Nc2nccc(C(F)(F)F)n2)cc(-c2cnc(C3(O)CCCN(C(N)=O)CC3)s2)c1` (single isomer, unassigned) [Example 54D-120], less than 100 nM.

`Cc1cc(Nc2nccc(C(F)(F)F)n2)cc(-c2cnc(C3(O)CCCN(C(=O)CO)CC3)s2)c1` (single isomer, unassigned) [Example 54D-123]: the IC50 under setting [5] was less than 100 nM. On to `Cc1cc(Nc2nccc(C(F)(F)F)n2)cc(-c2cnc(C3(O)CCCN(C(=O)c4nc[nH]n4)CC3)s2)c1` (single isomer, unassigned) [Example 54D-125], for which the IC50 under setting [5] was less than 100 nM.

For the molecule `Cc1cc(Nc2nccc(C(F)(F)F)n2)cc(-c2cnc(CNC(CO)C(C)O)s2)c1` (single isomer, unassigned) [Example 88A-44], under setting [6], the IC50 was less than 100 nM.

`Cc1cc(Nc2nccc(C(C)O)n2)cc(-c2cnc(C3(O)CCC(C(=O)O)C(C)(C)C3)s2)c1` (single isomer, unassigned) [Example 100A-15]: the IC50 under setting [6] was less than 100 nM. In the case of `Cc1cc(Nc2nccc(C(O)C3CC3)n2)cc(-c2cnc(C3(O)CCC(C(=O)O)C(C)(C)C3)s2)c1` (single isomer, unassigned) [Example 100A-19], the IC50 under setting [6] was less than 100 nM.

Turning to `Cc1cc(Nc2nccc(C(F)C3CC3)n2)cc(-c2cnc(C3(O)CCC(C(=O)O)C(C)(C)C3)s2)c1` (single isomer, unassigned) [Example 100A-22], the IC50 under setting [6] was less than 100 nM. Consider `Cc1cc(Nc2nccc(C(C)(O)C3CC3)n2)cc(-c2cnc(C3(O)CCC(C(=O)O)C(C)(C)C3)s2)c1` (single isomer, unassigned) [Example 100A-26], for which, under setting [6], the IC50 is less than 100 nM. As for `Cc1cc(Nc2nccc(C(F)(F)F)n2)cc(-c2cnc(C3(O)CCC(O)C(C)(C)C3)s2)c1` (centres unmarked) [8A-7], where the note is “read-out: rhSYK Activity, Table 8A”, the IC50 was less than 100 nM. Take `Cc1cc(Nc2nccc(C(F)(F)F)n2)cc(-c2cnc(C3(O)CCN(C(N)=O)C3)s2)c1` (centres unmarked) [54B-3]: the IC50 under setting [7] is less than 100 nM. With `Cc1cc(Nc2nccc(C(F)(F)F)n2)cc(-c2cnc(C3(O)CCN(C(N)=O)C3)s2)c1` (centres unmarked) [54B-7], the IC50 under setting [7] was less than 100 nM. Still for that read-out and setting: the figure for `Cc1cc(Nc2nccc(C)n2)cc(-c2cnc(C3(O)CCN(C(N)=O)C3)s2)c1` (centres unmarked) [54B-14] is less than 100 nM; for `Cc1cc(Nc2nccc(C)n2)cc(-c2cnc(C3(O)CCN(C(N)=O)C3)s2)c1` (centres unmarked) [54B-15] it is less than 100 nM. Regarding `CC(C)(c1ncc(-c2cc(F)cc(Nc3nccc(C(F)(F)F)n3)c2)s1)S(N)(=O)=O` [74A-10], for the setting “read-out: rhSYK Activity, Table 74A”, the IC50 was in the range of 100 to 1000 nM. `Cc1cc(Nc2nccc(C(C)C)n2)cc(-c2cnc(C3(O)CCCNCC3)s2)c1` (centres unmarked) [113C-14]: the IC50 (read-out: rhS YK Activity, Table 113C) is less than 100 nM.

In the case of `Cc1cc(Nc2nccc(C(F)F)n2)cc(-c2cnc(C3(O)CCC(C(=O)O)C(C)C3)s2)c1` (centres unmarked) [116A-19], the IC50 under setting [8] is less than 100 nM.

Consider `Cc1cc(Nc2ncc(Cl)c(C)n2)cc(-c2cnc([C@]3(O)CC[C@@H](C(=O)O)C(C)(C)C3)s2)c1` [116A-26], for which, under setting [8], the IC50 is less than 100 nM. For the molecule `Cc1cc(Nc2nccc(C(F)(F)F)n2)cc(-c2cnc(C3(O)CCC(C(=O)O)CC3)s2)c1` (centres unmarked) [Example 33A-6], the IC50 under setting [1] is less than 100 nM. Same read-out and setting: the figure for `Cc1cc(Nc2nccc(C(F)(F)F)n2)cc(-c2cnc(C3(O)CCC(CCC(=O)O)CC3)s2)c1` (centres unmarked) [Example 33A-19] is less than 100 nM; for `Cc1cc(Nc2nccc(C(F)(F)F)n2)cc(-c2cnc(C3(O)CCC(CCC(=O)O)CC3)s2)c1` (centres unmarked) [Example 33A-20] it is less than 100 nM.

With `Cc1cc(Nc2nccc(C)n2)cc(-c2cnc(C3(O)CCC(CC(=O)O)CC3)s2)c1` (centres unmarked) [Example 33A-33], the IC50 under setting [1] is less than 100 nM.

For `COc1ccnc(Nc2cc(C)cc(-c3cnc(C4(O)CCC(C(=O)O)CC4)s3)c2)n1` (centres unmarked) [Example 33A-36], under setting [1], the IC50 was less than 100 nM. On the same count and under the same terms, the figure for `COc1ccnc(Nc2cc(C)cc(-c3cnc(C4(O)CCC(C)(C(=O)O)CC4)s3)c2)n1` (centres unmarked) [Example 33A-37] is less than 100 nM; for `Cc1cc(Nc2ncc(F)c(C3CC3)n2)cc(-c2cnc(C3(O)CCC(C(=O)O)C(C)(C)C3)s2)c1` (centres unmarked) [Example 33A-41] it is less than 100 nM. The same measure, in the same setting: the result for `Cc1cc(Nc2nccc(C3CC3)n2)cc(-c2cnc(C3(O)CCC(C(=O)O)C(C)(C)C3)s2)c1` (centres unmarked) [Example 33A-42] reads less than 100 nM. Same read-out and setting: the figure for `CC1(C)CC(O)(c2ncc(-c3cc(CO)cc(Nc4nccc(C(F)(F)F)n4)c3)s2)CCC1C(=O)O` (centres unmarked) [Example 33A-53] is less than 100 nM; for `Cc1cc(Nc2nccc(C)n2)cc(-c2cnc(C3(O)CCC(C(=O)O)C(C)(C)C3)s2)c1` (centres unmarked) [Example 33A-68] it is less than 100 nM. Turning to `Cc1cc(Nc2nccc(C(F)(F)F)n2)cc(-c2cnc(C3(O)CCC(C(=O)O)C(C)(C)C3C)s2)c1` (centres unmarked) [Example 33A-76], under setting [1], the IC50 is less than 100 nM. Regarding `Cc1cc(Nc2nccc(C(F)(F)F)n2)cc(-c2cnc(C3(O)CCCC(C(=O)O)C(C)(C)C3)s2)c1` (centres unmarked) [Example 33B-8], the IC50 under setting [2] is less than 100 nM.

Source of the values: patent US8551984B2, “Aminopyrimidines as SYK inhibitors” (Merck Sharp & Dohme Corp., priority 2009, dated 2013).
